Values of other authors in patent US4127519A, “Octadecapeptides, intermediates therefor, and compositions and methods employing said octadecapeptides” (priority 1977, dated 1978).

Legend:
[1] = system: brain opiate receptor sites
[2] = injected directly into the brain of the rat

Substance: H-Tyr-Gly-Gly-Phe-Met-OH [methionine enkephalin]
- binding to partially purified brain opiate receptor sites [1]: binds stereo-specifically
- analgesic activity [2]: weak analgesic agent of short duration
